The target in this experiment is T1, hAR (human androgen receptor) (Homo sapiens, UniProt P10275).
T1 construct: made in house; host or cells: baculovirus/Sf9 insect cells (extract)
T1 sequence (P10275 1-920): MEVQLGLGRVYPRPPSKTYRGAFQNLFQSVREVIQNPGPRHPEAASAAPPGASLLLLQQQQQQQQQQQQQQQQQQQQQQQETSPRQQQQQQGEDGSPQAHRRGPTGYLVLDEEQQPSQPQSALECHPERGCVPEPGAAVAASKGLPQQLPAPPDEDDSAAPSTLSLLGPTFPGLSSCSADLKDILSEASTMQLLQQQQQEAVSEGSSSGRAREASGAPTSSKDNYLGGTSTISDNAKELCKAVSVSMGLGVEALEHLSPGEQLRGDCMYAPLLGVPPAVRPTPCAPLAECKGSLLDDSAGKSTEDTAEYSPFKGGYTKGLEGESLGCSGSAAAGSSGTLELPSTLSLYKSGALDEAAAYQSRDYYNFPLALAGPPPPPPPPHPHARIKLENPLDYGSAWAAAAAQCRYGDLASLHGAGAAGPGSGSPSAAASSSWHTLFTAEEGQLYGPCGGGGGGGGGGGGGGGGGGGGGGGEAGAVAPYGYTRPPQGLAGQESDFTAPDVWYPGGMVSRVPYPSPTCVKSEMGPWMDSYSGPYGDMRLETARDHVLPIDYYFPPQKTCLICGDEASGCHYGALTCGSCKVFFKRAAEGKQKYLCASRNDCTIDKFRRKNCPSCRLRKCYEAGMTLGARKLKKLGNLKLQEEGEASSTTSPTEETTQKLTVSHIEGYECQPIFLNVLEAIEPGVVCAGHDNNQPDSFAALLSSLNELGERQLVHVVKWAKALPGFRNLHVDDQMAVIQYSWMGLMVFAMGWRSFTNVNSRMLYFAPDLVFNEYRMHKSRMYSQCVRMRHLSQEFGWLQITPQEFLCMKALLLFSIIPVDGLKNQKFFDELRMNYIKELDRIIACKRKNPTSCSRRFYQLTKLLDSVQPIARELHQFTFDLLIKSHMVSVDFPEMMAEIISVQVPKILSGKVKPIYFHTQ
Kind of experiment: Competitive binding analysis on hAR extracts with 3H-DHT tracer. How it is done: The compounds of Formula I have affinity for the androgen receptor. […] The description below describes how the assay was carried out.
Competitive binding analysis was performed on baculovirus/Sf9 generated hAR extracts in the presence or absence of different concentrations of test agent and a fixed concentration of ^3H-dihydrotestosterone (^3H-DHT) as tracer. This binding assay method is a modification of a protocol previously described (Liao S., et. al. J. Steroid Biochem. 20:11-17 1984). Briefly, progressively decreasing concentrations of compounds are incubated in the presence of hAR extract (Chang et al. P.N.A.S. Vol. 89, pp. […], 1992), hydroxylapatite, and 1 nM ^3H-DHT for one hour at 4° C. Subsequently, the binding reactions are washed three times to completely remove excess unbound ^3H-DHT. hAR bound ^3H-DHT levels are determined in the presence of compounds (i.e. competitive binding) and compared to levels bound when no competitor is present (i.e. maximum binding). Compound binding affinity to the hAR is expressed as the concentration of compound at which one half of the maximum binding is inhibited. Table II below provides the results that were obtained for selected compounds (reported data is the mean of multiple tests as shown below)

pIC50: −log10 of the molar value. Read-outs that look alike come from different tables or passages of the source.

Regarding `COCC(COc1ccccc1)Oc1ccc(C#N)c(C(F)(F)F)c1` (stereo not drawn) [Example 27, 4-(1-Methoxymethyl-2-phenoxy-ethoxy)-2-trifluoromethyl-benzonitrile], the pIC50 is 8.30.

Regarding `N#Cc1ccc(OC(CO)COc2ccccc2)cc1C(F)(F)F` (stereo not drawn) [Example 28, 4-(1-Hydroxymethyl-2-phenoxy-ethoxy)-2-trifluoromethyl-benzonitrile], the negative-log IC50 (pIC50) is 7.09.

Consider `N#Cc1ccc(OCCCCCOc2ccc(C#N)c(C(F)(F)F)c2)cc1C(F)(F)F` [Example 24], for which the pIC50 (baculovirus/Sf9 hAR extract, 1 nM 3H-DHT, one hour at 4° C, mean of multiple tests, read-out: AR Binding IC50) was 6.89.

These data come from US7473711B2, “Androgen modulators” (Pfizer Inc., priority 2004, dated 2009).
